Data taken from BindingDB's records for doi:10.1021/jm00101a008 (Centre De Recherche De Vitry-Alfortville, 1992).

These compounds were tested against Leukotriene B4 receptor (Cavia porcellus) (assay: Inhibition of [3H]LTB4 binding to Leukotriene B4 receptor in the guinea pig spleen membranes.).

IC50 [µM]	SMILES
0.022	CC(C)(CCCCCCOc1cc(-c2ccccc2)cc(-c2ccccc2)n1)C(=O)O
0.15	O=C(O)CCCCCOc1cc(-c2ccc(NC(=O)C(F)(F)F)cc2)cc(-c2ccccc2)n1
0.2	O=C(O)CCCCCOc1cc(-c2ccccc2Cl)cc(-c2ccccc2)n1
0.004	CC(CCCCOc1cc(-c2ccccc2)cc(-c2ccccc2)n1)C(=O)O (centres undefined)
0.004	CC(CCCCOc1cc(-c2ccccc2)cc(-c2ccccc2F)n1)C(=O)O (centres undefined)
0.0042	CC(CCCCOc1cc(-c2ccc3c(c2)OCO3)cc(-c2ccccc2)n1)C(=O)O (centres undefined)
0.0066	CC(C)(CCCCOc1cc(-c2ccc(N)cc2)cc(-c2ccccc2)n1)C(=O)O
0.04	COC(=O)CCCCCOc1cc(-c2ccccc2)cc(-c2ccccc2)n1
0.002	CC(CCCCOc1cc(-c2ccc3c(c2)OCO3)cc(-c2ccccc2Cl)n1)C(=O)O (centres undefined)
0.003	O=C(O)CCCCCOc1cc(-c2ccccc2)cc(-c2ccccc2)n1
0.05	O=C(O)CCCCCOc1cc(-c2ccc([N+](=O)[O-])cc2)cc(-c2ccccc2)n1
0.05	O=C(O)CCCCOc1cc(-c2ccccc2)cc(-c2ccccc2)n1
0.001	O=C(O)CCCCCOc1cc(-c2ccc3c(c2)OCO3)cc(-c2ccccc2)n1
0.025	O=C(O)CCCCCCOc1cc(-c2ccccc2)cc(-c2ccccc2)n1

Molecular target: Leukotriene B4 receptor (Cavia porcellus)
Assay: as above
Remark: another data set of the same source

IC50 [µM]	SMILES
0.3	Cc1ccc(-c2cc(-c3ccccc3)cc(OCCCCCC(=O)O)n2)cc1
0.16	NC(=O)CCCCCOc1cc(-c2ccccc2)cc(-c2ccccc2)n1
0.7	N#CCCCCCOc1cc(-c2ccccc2)cc(-c2ccccc2)n1
0.3	O=C(O)CCCOc1cc(-c2ccccc2)cc(-c2ccccc2)n1
1	COc1ccc(-c2cc(-c3ccccc3)cc(OCCCCCC(=O)O)n2)cc1
